{"source": "patent US8287918B2", "about": "“Medicament for treating lung cancer” (Dainippon Sumitomo Pharma Co., Ltd., priority 2001, dated 2012)", "key": {"[1]": {"tested_on": "Human small cell lung cancer LX-1 cell strain", "assay": "Antitumor activity against subcutaneously transplanted LX-1 tumor in nude mice", "format": "in vivo", "conditions": "single agent at maximum tolerated dose (amrubicin hydrochloride 25 mg/kg; cisplatin 10 mg/kg), single intravenous administration, measured for 23 days", "experimental": "Human small cell lung cancer LX-1 cell strain was subcutaneously transplanted to nude mice (80 animals) at 5 weeks of age. After 15 days from the tumor transplantation, 36 animals having a tumor volume of about 200 to 500 mm^3 were allotted to 6 groups consisting of 6 animals per group. On the same day, the animals received intravenous administration, respectively, of physiological saline for “vehicle group”, the maximum tolerated dose of amrubicin hydrochloride (25 mg/kg) for “an amrubicin hydrochloride alone administration group”, the maximum tolerated dose of cisplatin (10 mg/kg) for “cisplatin alone administration group”, 0.5 times of the maximum tolerated dose of amrubicin hydrochloride and 0.5 times of the maximum tolerated dose of cisplatin for “combined administration group (0.5×MTD)”, 0.8 times of the maximum tolerated dose of amrubicin hydrochloride and 0.8 times of the maximum tolerated dose of cisplatin for “combined administration group (0.8×MTD)”, the maximum tolerated dose of amrubicin hydrochloride and the maximum tolerated dose of cisplatin for “combined administration group (1×MTD)”. Thereafter, tumor volume and body weight of the mice were measured for 23 days. […]\nThe minimum T/C % was calculated as follows: […]"}, "[2]": {"conditions": "humans, cited from earlier work"}, "[3]": {"conditions": "rabbit chronic experimental model; Invest. New Drug, 15, 219-225 (1997); cited from earlier work"}, "[4]": {"tested_on": "tumor cells", "conditions": "Cancer Chemothr. Pharmacol., 30, 51-57 (1992); cited from earlier work"}}, "note": "Where a name gives a salt, the structure may show the parent alone. Read-outs that look alike come from different tables or passages of the source."}
{"molecule": "CC(=O)[C@]1(N)Cc2c(O)c3c(c(O)c2[C@@H](OC2CC(O)C(O)CO2)C1)C(=O)c1ccccc1C3=O", "note": "(stereo partly shown) [amrubicin hydrochloride]", "values": [{"measurement": "Minimum T/C %", "setting": "[1]", "result": 55, "unit": "%"}, {"measurement": "maximum tolerated dose", "setting": "[2]; administration in 3 continuous days", "result": 50, "unit": "mg/m^2 per day"}, {"measurement": "maximum tolerated dose", "setting": "[2]; once a day single dose", "result": 130, "unit": "mg/m^2"}]}
{"molecule": "CC(=O)[C@]1(N)Cc2c(O)c3c(c(O)c2[C@@H](O[C@H]2C[C@H](O)[C@H](O)CO2)C1)C(=O)c1ccccc1C3=O", "note": "[amrubicin, (+)-(7S,9S)-9-acetyl-9-amino-7-[(2-deoxy-β-D-erythro-pentopyranosyl)oxy]-7,8,9,10-tetrahydro-6,11-dihydroxy-5,12-naphthacenedione]", "values": [{"measurement": "cardiac toxicity compared with doxorubicin", "setting": "[3]", "result": "far weaker than doxorubicin"}]}
{"molecule": "CC(O)[C@]1(N)Cc2c(O)c3c(c(O)c2[C@@H](O[C@H]2C[C@H](O)[C@H](O)CO2)C1)C(=O)c1ccccc1C3=O", "note": "(stereo partly shown) [amrubicinol]", "values": [{"measurement": "inhibitory activity against growth of tumor cells compared with amrubicin", "setting": "[4]", "result": "considerably stronger"}]}
{"molecule": "N.N.[Cl][Pt][Cl]", "note": "[cisplatin, cis-diammin dichloroplatinum]", "values": [{"measurement": "Minimum T/C %", "setting": "[1]", "result": 68, "unit": "%"}, {"measurement": "maximum tolerated dose", "setting": "[2]", "result": 90, "unit": "mg/m^2"}]}
